# Values quoted from earlier work as cited in PMC10005815 (Journal of Medicinal Chemistry, 2023).
# Like-named read-outs stand apart in the source and are kept apart here.
# Tested on: SARS-CoV-2
compound,measurement,setting,value
Cn1cnc(Cn2c(=O)[nH]/c(=N\c3cc4cn(C)nc4cc3Cl)n(Cc3cc(F)c(F)cc3F)c2=O)n1 [S-217622],EC50,read-out: SARS-CoV-2 VOCs EC50,290 to 500 nM
N#C[C@]1(c2ccc3c(N)ncnn23)O[C@@H](CO)[C@H](O)[C@@H]1O [GS-441524],Increase of EC50 (resistance selection),,2.7–10.4 fold
COc1ccc(C(=O)Nc2cccc(C(F)(F)F)c2)cc1Nc1nc(-c2cccnc2)c2[nH]ccc2n1 [XMU-MP-7],EC50,"read-out: EC50 against γ, δ, and o variants",< 6.9 nM
